The subject of data set [1] is anti-αGal antibody. To be noted: Neethling et al., 1996; cited from earlier work.
For data set [2], the system named is anti-αGal IgG and IgM antibodies. Description: In vitro mouse laminin ELISA: soluble oligosaccharides as neutralizers of anti-αGal antibodies. The class given is binding. To be noted: serum pre-incubated with oligosaccharide 1 hour 37° C.; result in words. An excerpt:
In vitro laminin ELISA evaluation of αGal oligosaccharides as neutralizers of anti-αGal antibodies. Mouse laminin is a basement membrane glycoprotein that expresses 50-70 oligosaccharides terminating in Galα1-3Gal, i.e., the αGal motif (Arumugham et al., 1986, Biochem. Biophys. Aeta 883:112). In this assay, immobilization of mouse laminin on microtiter plates serves as a capture ligand for anti-αGal antibodies. […] The example provides a method by which to determine the ability of αGal oligosaccharides and pharmaceutically acceptable derivative of the invention to bind to anti-αGal antibodies and to thereby remove these antibodies from the serum, neutralize anti-αGal antibodies, and/or target anti-αGal directed complement-mediated lytic attack to specific tissue or cell types. The example also provides a method by which the effectiveness of the methods of the invention can be evaluated and dosages determined.
Sera were mixed with serial dilutions of αGal oligosaccharides (αGal-CHO) at 37° C. for 1 hour, then added to mouse laminin-coated microtiter plates and incubated for 1 hour to allow binding. The microtiter plates were coated with 20 μg/mL mouse laminin in 50 mM NaHCO3 buffer, pH 9.5 at 4° C. overnight, blocked with SuperBlock solution (Pierce) for 2 hours, and then washed 3 times with SuperBlock solution. After washing excess serum away, bound IgG and IgM was measured by adding goat anti-human IgG (or IgM) conjugated to alkaline phosphatase and incubating for 1 hour, washing, and adding substrate (pNPP).
Background: An ELISA detects its analyte on a solid surface through an enzyme-linked reagent.

Data set [3] deals with anti-αGal antibodies (serum IgG and IgM). Description: In vitro immobilized αGal pentasaccharide glycinamide ELISA. The class given is binding. To be noted: baboon serum pre-incubated with oligosaccharide 1 hour 37° C.; result in words. An excerpt: In vitro immobilized αGal oligosaccharide ELISA analysis evaluation of anti-αGal antibody titer and of αGal oligosaccharides as neutralizers of anti-αGal antibodies. This example provides an assay that may be applied to determine the ability of αGal oligosaccharides and pharmaceutically acceptable derivative of the invention to bind to anti-αGal antibodies and to thereby remove these antibodies from the serum or plasma, neutralize anti-αGal antibodies, and/or target complement-mediated lytic attack to specific tissue or cell types. Such an ELISA is additionally useful in clinical monitoring of anti-αGal antibodies in blood of patients in advance of, and following xenotransplantation of organs from animals that express the αGal epitope.
The derivative of the αGal pentasaccharide (αGal pentasaccharide glycinamide) was synthesized and immobilized on N-oxysuccinimide microtiter plates (Costar) (0.5 mg/ml αGal pentasaccharide glycinamide) in bicarbonate buffer, pH 9.0, overnight at 4° C.; the plate was blocked first for 1 hour with 1M ethanolamine in the same buffer and secondly with phosphate buffered saline, pH 7.4, containing 1% bovine serum albumin and 0.05% Tween 20 and 0.02% NaN3 or PBNT. PBNT was used for all three subsequent plate washes and as a diluent for the antibodies. […] The optical density at 405 nm was recorded.

Another data set concerns pig kidney cells, PK-15. The experiment in a line: In vitro cytotoxicity of human sera on PK-15 monolayers. The data set is classed as cell-based. The following applies: sera of individual humans; result in words. The method, then:
Sera were incubated with serial dilutions of αGal oligosaccharides at 37° C. for 1 hour, then added to αGal-expressing monolayers (pig kidney cells, PK-15) in Terasaki plates for 1 hour at 37° C. Cytotoxicity was mediated by either endogenous complement, or the sera were de-complemented (heat inactivated for 30 minutes at 56° C.) and exogenous (rabbit) complement was added. After washing away excess serum, the viable dye mix "live-dead" (calcein AM/ethidium homodimer (Molecular Probes Inc., Eugene Oreg.)) was added and monolayers were scored for viability by fluorescence microscopy.

The test system of data set [4] is anti-αGal antibody. The experiment in a line: In vivo blood serum analysis: serum anti-αGal antibody neutralizing capacity in baboons. The following applies: monovalent oligosaccharide. More on the design: species or system baboon. An excerpt:
Pharmokinetics of αGal trisaccharides and αGal pentasaccharides in baboons. This example presents a study of the pharmokinetic profile and serum anti-αGal antibody neutralizing capacity in baboons of αGal trisaccharides and αGal pentasaccharides and previews the compounds' suitability for use in the prevention of hyperacute rejection of porcine organs xenotransplanted into baboons.
(§1) Three Baboons were outfitted with indwelling venous and arterial catheters to the femoral vessels, and held in place with the aid of a jacket. Oligosaccharides were administered through the catheter in a 15 minute continuous infusion.

Data set [5] can be described thus: Pharmacokinetics after 15 minute intravenous bolus in baboons. The class given is in vivo, baboon. The following applies: for clearance / half-life / Vd: baboon, plasma, iv, 500 umol/kg, 0.5 mMol/Kg 15 minute i.v. bolus; for Vd: read-out: Volume of Distribution. On the procedure: The pharmacokinetics of the αGal trisaccharide compositions and the αGal pentasaccharide compositions were determined by delivering to one baboon by 15 minute intravenous bolus, 0.5 mMol/Kg of one oligosaccharide and 48 hours later, delivering 0.5 mmol/Kg of the second oligosaccharide, and for a second baboon, delivering the oligosaccharides according to the same procedure, but in the reverse order.
as §1
The clearance is used to calculate the infusion rate needed to maintain a desired drug concentration. The half-life describes how quickly concentrations diminish with time. Mathematical formulations known in the art were applied to estimate the pharmacokinetic parameters of the αGal trisaccharide and αGal pentasaccharide. […] Compared to other drugs, the volumes of distribution of these oligosaccharides are low, less than the extravascular water volume (<400 mL/kg). The clearance is typical of compounds eliminated by GFR (glomerular filtration rate).

A further data set has as its system hyperacute rejection. To be noted: cited from earlier work.
[6] abbreviates: to attain 0.5 mM steady state serum concentration.
Where [7] appears, read: to attain 1.0 mM steady state serum concentration.
[8] abbreviates: to attain 2.0 mM steady state serum concentration.

Molecules are shown by their SMILES. Entries after “also recorded” stand apart in the source; their conditions may differ. Where two headings read alike, the source gives them in different places.

Consider `OC[C@H]1O[C@H](O[C@H]2[C@@H](O)[C@@H](CO)OC(O)[C@@H]2O)[C@H](O)[C@@H](O)[C@H]1O` (some centres unmarked) [αGal disaccharide, Galα1-3Gal], for which, in the data set on anti-αGal antibody [1], the “Neutralization of anti-αGal antibody in vitro, in words” value was “effective in neutralizing the anti-αGal antibody in vitro”.
With `CC(=O)N[C@H]1[C@H](O[C@H]2[C@@H](O)[C@@H](CO)O[C@@H](O[C@H]3[C@H](O)[C@@H](O)C(O)O[C@@H]3CO)[C@@H]2O)O[C@H](CO)[C@@H](O[C@@H]2O[C@H](CO)[C@H](O)[C@H](O)[C@H]2O)[C@@H]1O` (some centres unmarked) [Galβ1-4GlcNAcβ1-3 Galβ1-4Glc], the “Inhibition of anti-αGal IgG and IgM antibody binding to immobilized mouse laminin” value (“Inhibition … to immobilized mouse laminin” below) in data set [2] is given as “do not inhibit antibody binding”.
For the molecule `OC[C@H]1O[C@@H](O[C@H]2[C@H](O)[C@@H](O)C(O)O[C@@H]2CO)[C@H](O)[C@@H](O)[C@H]1O` (some centres unmarked) [lactose, galactoseβ1-4glucose], in data set [2], the “Inhibition … to immobilized mouse laminin” value is “do not inhibit antibody binding”.
For the molecule `OC[C@H]1O[C@@H](O[C@@H]2[C@H](O)[C@@H](O)C(O)O[C@@H]2CO)[C@H](O)[C@@H](O)[C@H]1O` (some centres unmarked) [Galβ1-4Gal], the “Inhibition of serum IgG and IgM binding to immobilized αGal pentasaccharide glycinamide” value in data set [3] is “minimally”. The “Inhibition … to immobilized mouse laminin” value in data set [2] is reported as “do not inhibit antibody binding”.
In the same order, the values of `OC[C@H]1O[C@@](CO)(O[C@H]2O[C@H](CO)[C@@H](O)[C@H](O)[C@H]2O)[C@@H](O)[C@@H]1O` [sucrose] are “not inhibited” and “do not inhibit antibody binding”.
Take `CC(=O)N[C@H]1C(O)O[C@H](CO)[C@@H](O[C@@H]2O[C@H](CO)[C@H](O)[C@H](O[C@H]3O[C@H](CO)[C@H](O)[C@H](O)[C@H]3O)[C@H]2O)[C@@H]1O` (some centres unmarked) [αGal trisaccharide, Galα1-3Galβ1-4GlcNAc]: in the data set on anti-αGal antibody [1], the “Neutralization of anti-αGal antibody in vitro, in words” value is reported as “effective in neutralizing the anti-αGal antibody in vitro” and the “Relative effectiveness in neutralizing anti-αGal antibody in vitro” value was “ten times more effective than the αGal disaccharide”. Further, in data set [2], the “Inhibition … to immobilized mouse laminin” value is “slightly better inhibitor of IgG (FIG. 1A) and IgM (FIG. 1B) binding to laminin than αGal pentasaccharide”. Moreover, the “Inhibition of serum cytotoxicity toward PK-15 cells” value in the data set with pig kidney cells, PK-15 is listed as “slightly better inhibitor of cytotoxicity than αGal pentasaccharide; also recorded: inhibited slightly better by the αGal trisaccharide than by the αGal pentasaccharide”. Moreover, the “Minimal serum (circulating) concentration required to inhibit hyperacute rejection / be efficacious in vivo” value with anti-αGal antibody [4] is listed as no less than 1 mM. In addition, in data set [5] (baboon 1003), the clearance turned out to be 4.18 mL/min/kg, the half-life was found to be 46.8 min and the Vd was determined as 0.288 L/kg. Moreover, in data set [5] (baboon 1015), the clearance is 4.88 mL/min/kg, the half-life was determined as 51.5 min and the Vd worked out at 0.362 L/kg. Moreover, in data set [5] (setting [6]), the “Calculated continuous infusion, total amount” value (“Calculated continuous infusion” below) is reported as 1.04 Kg/14 days; the Calculated loading dose is 3.82 g/20 Kg baboon; the “Calculated loading dose (bolus or 15 min infusion)” value was 191 mg/kg. Also, in data set [5] (setting [7]), the “Calculated continuous infusion” value is given as 2.08 Kg/14 days; the Calculated loading dose is 7.64 g/20 Kg baboon; the “Calculated loading dose (bolus or 15 min infusion)” value was 382 mg/kg. Besides, in data set [5] (setting [8]), the “Calculated continuous infusion” value is on record as 4.15 Kg/14 days; the Calculated loading dose is 15.28 g/20 Kg baboon; the “Calculated loading dose (bolus or 15 min infusion)” value was 764 mg/kg.
Regarding `OC[C@H]1O[C@H](OC[C@H]2OC(O)[C@H](O)[C@@H](O)[C@@H]2O)[C@H](O)[C@@H](O)[C@H]1O` (some centres unmarked) [melibiose, Galα1-6Glu], the “Prevention of hyperacute rejection on in vivo administration” value in the data set with hyperacute rejection (Ye et al., 1994) was “failed to prevent hyperacute rejection”. Further, the “Toxicity on in vivo administration” value in the data set on hyperacute rejection (necessary concentrations in pig/primate xenotransplantation) is on record as “cytotoxic to other tissue; also recorded: proved highly toxic”.

A word on the clearance: it is the volume of plasma or blood freed of the substance per unit of time. As usually defined, the half-life is the time in which the quantity being followed falls by half.

The record behind these values is patent US6096725A, “Methods of using αGal oligosaccharides as immune system targeting agents” (Neose Technologies, Inc., priority 1997, dated 2000).
